Test results: PubChem BioAssay (NCI)
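Cells were grown in 96-well plates and exposed to each compound for 48 hours at five concentrations; endpoints were interpolated linearly between bracketing concentrations, or set to the highest concentration if not reached. GI50 is the concentration that inhibits growth by half. TGI marks complete inhibition of growth.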

Legend:
Experiment in all cases: inhibition of tumour cell growth, NCI panel, 48 h
OVCAR-8 ovarian = system: OVCAR-8 ovarian
OVCAR-5 ovarian = system: OVCAR-5 ovarian
HCT-15 colon = system: HCT-15 colon
UO-31 renal = system: UO-31 renal
SNB-75 CNS = system: SNB-75 CNS
PC-3 prostate = system: PC-3 prostate
NCI-H460 lung = system: NCI-H460 lung
NCI-H23 lung = system: NCI-H23 lung
A549 NSCLC = system: A549 NSCLC
KM12 colon = system: KM12 colon
SK-MEL-28 melanoma = system: SK-MEL-28 melanoma
BT-549 breast = system: BT-549 breast
RPMI-8226 leukemia = system: RPMI-8226 leukemia
786-0 renal = system: 786-0 renal
CCRF-CEM leukemia = system: CCRF-CEM leukemia
NCI-H522 lung = system: NCI-H522 lung
EKVX NSCLC = system: EKVX NSCLC
OVCAR-4 ovarian = system: OVCAR-4 ovarian
NCI/ADR-RES ovarian = system: NCI/ADR-RES ovarian
OVCAR-3 ovarian = system: OVCAR-3 ovarian
SK-OV-3 ovarian = system: SK-OV-3 ovarian
SF-268 CNS = system: SF-268 CNS
HCT-116 colon = system: HCT-116 colon
TK-10 renal = system: TK-10 renal
SNB-19 CNS = system: SNB-19 CNS
UACC-257 melanoma = system: UACC-257 melanoma
M14 melanoma = system: M14 melanoma
HCC-2998 colon = system: HCC-2998 colon
SK-MEL-5 melanoma = system: SK-MEL-5 melanoma
HOP-62 NSCLC = system: HOP-62 NSCLC
SK-MEL-2 melanoma = system: SK-MEL-2 melanoma
T-47D breast = system: T-47D breast
NCI-H226 lung = system: NCI-H226 lung
HT29 colon = system: HT29 colon
MDA-MB-231 breast = system: MDA-MB-231 breast
ACHN renal = system: ACHN renal
A498 renal = system: A498 renal
HOP-92 NSCLC = system: HOP-92 NSCLC
DU-145 prostate = system: DU-145 prostate
SW-620 colon = system: SW-620 colon
RXF 393 renal = system: RXF 393 renal
U251 CNS = system: U251 CNS
COLO 205 colon = system: COLO 205 colon
K-562 leukemia = system: K-562 leukemia
HL-60(TB) leukemia = system: HL-60(TB) leukemia
CAKI-1 renal = system: CAKI-1 renal
SF-539 CNS = system: SF-539 CNS
UACC-62 melanoma = system: UACC-62 melanoma
MDA-MB-435 = system: MDA-MB-435
MOLT-4 leukemia = system: MOLT-4 leukemia
SR leukemia = system: SR leukemia
SF-295 CNS = system: SF-295 CNS
MALME-3M melanoma = system: MALME-3M melanoma
MCF7 breast = system: MCF7 breast
LOX IMVI melanoma = system: LOX IMVI melanoma
HS 578T breast = system: HS 578T breast
SN12C renal = system: SN12C renal
IGROV1 ovarian = system: IGROV1 ovarian

Work on `Cn1c(CCCC(=O)O)nc2cc(N(CCCl)CCCl)ccc21` yielded a GI50 (OVCAR-8 ovarian) greater than 91.2 µM, a TGI (OVCAR-8 ovarian) greater than 100 µM and a GI50 (OVCAR-5 ovarian) greater than 100 µM. It also gave a TGI (OVCAR-5 ovarian) greater than 100 µM, a GI50 (HCT-15 colon) greater than 100 µM and a TGI (HCT-15 colon) greater than 100 µM. The GI50 (UO-31 renal) was greater than 100 µM, the TGI (UO-31 renal) was greater than 100 µM and the GI50 (SNB-75 CNS) was greater than 83.5 µM. For the same compound, the TGI (SNB-75 CNS) was greater than 100 µM, the GI50 (PC-3 prostate) was greater than 100 µM and the TGI (PC-3 prostate) was greater than 100 µM. It also gave a GI50 (NCI-H460 lung) of 58.7 µM, a TGI (NCI-H460 lung) greater than 100 µM and a GI50 (NCI-H23 lung) of 74.9 µM. The TGI (NCI-H23 lung) was greater than 100 µM, the GI50 (A549 NSCLC) was greater than 100 µM and the TGI (A549 NSCLC) was greater than 100 µM. The GI50 (KM12 colon) was greater than 100 µM, the TGI (KM12 colon) was greater than 100 µM and the GI50 (SK-MEL-28 melanoma) was greater than 100 µM. For the same compound, the TGI (SK-MEL-28 melanoma) was greater than 100 µM, the GI50 (BT-549 breast) was greater than 77.5 µM and the TGI (BT-549 breast) was greater than 100 µM. For the same compound, the GI50 (RPMI-8226 leukemia) was greater than 85.3 µM, the TGI (RPMI-8226 leukemia) was greater than 100 µM and the GI50 (786-0 renal) was greater than 80.9 µM. The TGI (786-0 renal) was greater than 100 µM, the GI50 (CCRF-CEM leukemia) was 28.1 µM and the TGI (CCRF-CEM leukemia) was greater than 77.7 µM. The GI50 (NCI-H522 lung) was greater than 93 µM, the TGI (NCI-H522 lung) was greater than 100 µM and the GI50 (EKVX NSCLC) was greater than 100 µM. The TGI (EKVX NSCLC) was greater than 100 µM, the GI50 (OVCAR-4 ovarian) was greater than 100 µM and the TGI (OVCAR-4 ovarian) was greater than 100 µM. The GI50 (NCI/ADR-RES ovarian) was 98.2 µM, the TGI (NCI/ADR-RES ovarian) was greater than 100 µM and the GI50 (OVCAR-3 ovarian) was greater than 66.2 µM. For the same compound, the TGI (OVCAR-3 ovarian) was greater than 93.3 µM, the GI50 (SK-OV-3 ovarian) was greater than 86.4 µM and the TGI (SK-OV-3 ovarian) was greater than 100 µM. The GI50 (SF-268 CNS) was 68.5 µM, the TGI (SF-268 CNS) was greater than 100 µM and the GI50 (HCT-116 colon) was greater than 80.5 µM. It also gave a TGI (HCT-116 colon) greater than 100 µM, a GI50 (TK-10 renal) greater than 91.3 µM and a TGI (TK-10 renal) greater than 100 µM. For the same compound, the GI50 (SNB-19 CNS) was 97.9 µM, the TGI (SNB-19 CNS) was greater than 100 µM and the GI50 (UACC-257 melanoma) was greater than 94.7 µM. It also gave a TGI (UACC-257 melanoma) greater than 100 µM, a GI50 (M14 melanoma) greater than 65.5 µM and a TGI (M14 melanoma) greater than 100 µM. For the same compound, the GI50 (HCC-2998 colon) was greater than 65.7 µM, the TGI (HCC-2998 colon) was greater than 100 µM and the GI50 (SK-MEL-5 melanoma) was greater than 71.6 µM. The TGI (SK-MEL-5 melanoma) was greater than 100 µM, the GI50 (HOP-62 NSCLC) was greater than 76.3 µM and the TGI (HOP-62 NSCLC) was greater than 100 µM. It also gave a GI50 (SK-MEL-2 melanoma) greater than 100 µM, a TGI (SK-MEL-2 melanoma) greater than 100 µM and a GI50 (T-47D breast) of 56.2 µM. It also gave a TGI (T-47D breast) greater than 100 µM, a GI50 (NCI-H226 lung) greater than 66.2 µM and a TGI (NCI-H226 lung) greater than 100 µM. For the same compound, the GI50 (HT29 colon) was greater than 100 µM, the TGI (HT29 colon) was greater than 100 µM and the GI50 (MDA-MB-231 breast) was greater than 69.6 µM. For the same compound, the TGI (MDA-MB-231 breast) was greater than 100 µM, the GI50 (ACHN renal) was greater than 77.3 µM and the TGI (ACHN renal) was greater than 100 µM. The GI50 (A498 renal) was greater than 32.6 µM, the TGI (A498 renal) was greater than 75 µM and the GI50 (HOP-92 NSCLC) was 33.5 µM. It also gave a TGI (HOP-92 NSCLC) greater than 93.3 µM, a GI50 (DU-145 prostate) greater than 80.6 µM and a TGI (DU-145 prostate) greater than 100 µM. For the same compound, the GI50 (SW-620 colon) was 78.4 µM, the TGI (SW-620 colon) was greater than 100 µM and the GI50 (RXF 393 renal) was greater than 100 µM. The TGI (RXF 393 renal) was greater than 100 µM, the GI50 (U251 CNS) was 72.7 µM and the TGI (U251 CNS) was greater than 100 µM. It also gave a GI50 (COLO 205 colon) greater than 95.8 µM, a TGI (COLO 205 colon) greater than 100 µM and a GI50 (K-562 leukemia) greater than 100 µM. It also gave a TGI (K-562 leukemia) greater than 100 µM, a GI50 (HL-60(TB) leukemia) greater than 51.2 µM and a TGI (HL-60(TB) leukemia) greater than 85.3 µM. For the same compound, the GI50 (CAKI-1 renal) was 53.2 µM, the TGI (CAKI-1 renal) was greater than 86.8 µM and the GI50 (SF-539 CNS) was 65.1 µM. For the same compound, the TGI (SF-539 CNS) was greater than 94.1 µM, the GI50 (UACC-62 melanoma) was 52.5 µM and the TGI (UACC-62 melanoma) was greater than 100 µM. For the same compound, the GI50 (MDA-MB-435) was greater than 75.5 µM, the TGI (MDA-MB-435) was greater than 100 µM and the GI50 (MOLT-4 leukemia) was 3.6 µM. For the same compound, the TGI (MOLT-4 leukemia) was 22.6 µM, the GI50 (SR leukemia) was 40.4 µM and the TGI (SR leukemia) was greater than 100 µM. For the same compound, the GI50 (SF-295 CNS) was greater than 64.4 µM, the TGI (SF-295 CNS) was greater than 100 µM and the GI50 (MALME-3M melanoma) was 49.6 µM. It also gave a TGI (MALME-3M melanoma) greater than 100 µM, a GI50 (MCF7 breast) of 69.2 µM and a TGI (MCF7 breast) greater than 100 µM. The GI50 (LOX IMVI melanoma) was greater than 58.8 µM, the TGI (LOX IMVI melanoma) was greater than 100 µM and the GI50 (HS 578T breast) was greater than 83.3 µM. For the same compound, the TGI (HS 578T breast) was greater than 100 µM, the GI50 (SN12C renal) was 45.1 µM and the TGI (SN12C renal) was greater than 100 µM. For the same compound, the GI50 (IGROV1 ovarian) was 70 µM and the TGI (IGROV1 ovarian) was greater than 100 µM.
